The text below walks through data of ChEMBL document CHEMBL3217510, “Rhodanine carboxylic acids as novel inhibitors of histone acetyltransferases” (Medchemcomm, 2012).

Molecules are shown by their SMILES. A value given as a limit tells only on which side of the number the result lay.

Experiment [1] concerns the target T1, Histone acetyltransferase KAT2B (Homo sapiens, UniProt Q92831). As to the kind of experiment: Inhibition of human recombinant N-terminal His-tagged PCAF histone acetyltransferase catalytic domain expressed in Escherichia coli BL21 D3 using biotinylated histone H3 as substrate at 50 uM after 10 mins by TR-FRET analysis relative to control. On the technique in general: TR-FRET usually uses a lanthanide donor and a delayed reading to cut background.
Target sequence in this assay (Q92831 whole entry, looked up, the tested form may be a part): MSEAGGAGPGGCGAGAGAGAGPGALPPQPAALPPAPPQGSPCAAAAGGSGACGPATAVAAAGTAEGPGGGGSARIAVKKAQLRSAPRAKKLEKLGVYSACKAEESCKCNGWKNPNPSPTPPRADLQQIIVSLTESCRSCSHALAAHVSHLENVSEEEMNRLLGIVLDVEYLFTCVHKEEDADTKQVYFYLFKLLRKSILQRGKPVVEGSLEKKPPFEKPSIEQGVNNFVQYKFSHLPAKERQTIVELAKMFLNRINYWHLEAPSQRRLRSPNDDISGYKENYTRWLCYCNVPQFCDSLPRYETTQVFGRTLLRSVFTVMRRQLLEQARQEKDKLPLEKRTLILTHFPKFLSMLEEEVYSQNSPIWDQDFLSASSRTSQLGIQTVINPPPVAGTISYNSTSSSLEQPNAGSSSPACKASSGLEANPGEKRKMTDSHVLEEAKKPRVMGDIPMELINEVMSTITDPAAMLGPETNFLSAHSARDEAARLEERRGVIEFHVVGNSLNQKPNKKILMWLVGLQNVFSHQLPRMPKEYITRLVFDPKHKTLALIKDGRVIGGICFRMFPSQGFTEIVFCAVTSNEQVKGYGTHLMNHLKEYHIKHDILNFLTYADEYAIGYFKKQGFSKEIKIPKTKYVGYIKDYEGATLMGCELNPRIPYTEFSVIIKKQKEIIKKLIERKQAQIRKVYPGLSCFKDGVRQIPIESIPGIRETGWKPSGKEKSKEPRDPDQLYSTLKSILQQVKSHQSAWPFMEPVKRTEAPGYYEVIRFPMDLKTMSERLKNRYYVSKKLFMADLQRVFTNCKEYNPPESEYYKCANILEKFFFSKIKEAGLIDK

The target of experiment [2] is T2, CREB-binding protein (Homo sapiens, UniProt Q92793). As to the kind of experiment: Inhibition of KAT3A (1319 to 1710) (unknown origin) using biotinylated histone H3 as substrate at 50 uM after 10 mins by TR-FRET analysis relative to control.
Experiment [3] concerns the target T3, Histone acetyltransferase p300 (Homo sapiens, UniProt Q09472). The experiment is described as follows: Inhibition of KAT3B (965 to 1810) (unknown origin) using biotinylated histone H3 as substrate at 50 uM after 10 mins by TR-FRET analysis relative to control.
In experiment [4] the target is T4, Histone acetyltransferase KAT2A (Homo sapiens, UniProt Q92830). As to the kind of experiment: Inhibition of KAT2A (362 to 837) (unknown origin) using biotinylated histone H3 as substrate at 50 uM after 10 mins by TR-FRET analysis relative to control.
Target sequence in this assay (Q92830 2-837 limits assumed): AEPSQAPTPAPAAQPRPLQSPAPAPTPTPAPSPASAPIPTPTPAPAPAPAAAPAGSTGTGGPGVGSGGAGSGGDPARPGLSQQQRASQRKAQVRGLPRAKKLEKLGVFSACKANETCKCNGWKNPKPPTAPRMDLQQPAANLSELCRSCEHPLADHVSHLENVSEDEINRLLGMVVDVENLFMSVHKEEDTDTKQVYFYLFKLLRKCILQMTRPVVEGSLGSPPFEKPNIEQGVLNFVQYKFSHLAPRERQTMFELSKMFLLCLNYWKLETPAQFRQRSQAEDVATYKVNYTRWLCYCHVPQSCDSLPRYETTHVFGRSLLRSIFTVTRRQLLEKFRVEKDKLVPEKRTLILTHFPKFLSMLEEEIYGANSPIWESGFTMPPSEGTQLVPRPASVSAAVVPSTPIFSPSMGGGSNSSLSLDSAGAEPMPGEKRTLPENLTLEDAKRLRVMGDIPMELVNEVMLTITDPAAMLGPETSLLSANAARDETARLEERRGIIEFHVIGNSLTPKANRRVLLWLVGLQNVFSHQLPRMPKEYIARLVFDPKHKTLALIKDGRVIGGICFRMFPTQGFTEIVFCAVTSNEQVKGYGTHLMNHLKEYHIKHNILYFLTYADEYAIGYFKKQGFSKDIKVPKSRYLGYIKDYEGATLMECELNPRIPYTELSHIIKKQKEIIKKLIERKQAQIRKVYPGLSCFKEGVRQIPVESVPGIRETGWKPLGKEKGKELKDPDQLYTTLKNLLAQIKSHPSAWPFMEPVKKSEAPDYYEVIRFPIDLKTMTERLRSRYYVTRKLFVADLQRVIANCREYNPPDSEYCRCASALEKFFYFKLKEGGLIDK
Experiment [5] deals with T4, Histone acetyltransferase KAT2A. As to the kind of experiment: Inhibition of KAT2A (362 to 837) (unknown origin) using biotinylated histone H3 as substrate after 10 mins by TR-FRET analysis relative to control.
Target sequence in this assay (Q92830 whole entry): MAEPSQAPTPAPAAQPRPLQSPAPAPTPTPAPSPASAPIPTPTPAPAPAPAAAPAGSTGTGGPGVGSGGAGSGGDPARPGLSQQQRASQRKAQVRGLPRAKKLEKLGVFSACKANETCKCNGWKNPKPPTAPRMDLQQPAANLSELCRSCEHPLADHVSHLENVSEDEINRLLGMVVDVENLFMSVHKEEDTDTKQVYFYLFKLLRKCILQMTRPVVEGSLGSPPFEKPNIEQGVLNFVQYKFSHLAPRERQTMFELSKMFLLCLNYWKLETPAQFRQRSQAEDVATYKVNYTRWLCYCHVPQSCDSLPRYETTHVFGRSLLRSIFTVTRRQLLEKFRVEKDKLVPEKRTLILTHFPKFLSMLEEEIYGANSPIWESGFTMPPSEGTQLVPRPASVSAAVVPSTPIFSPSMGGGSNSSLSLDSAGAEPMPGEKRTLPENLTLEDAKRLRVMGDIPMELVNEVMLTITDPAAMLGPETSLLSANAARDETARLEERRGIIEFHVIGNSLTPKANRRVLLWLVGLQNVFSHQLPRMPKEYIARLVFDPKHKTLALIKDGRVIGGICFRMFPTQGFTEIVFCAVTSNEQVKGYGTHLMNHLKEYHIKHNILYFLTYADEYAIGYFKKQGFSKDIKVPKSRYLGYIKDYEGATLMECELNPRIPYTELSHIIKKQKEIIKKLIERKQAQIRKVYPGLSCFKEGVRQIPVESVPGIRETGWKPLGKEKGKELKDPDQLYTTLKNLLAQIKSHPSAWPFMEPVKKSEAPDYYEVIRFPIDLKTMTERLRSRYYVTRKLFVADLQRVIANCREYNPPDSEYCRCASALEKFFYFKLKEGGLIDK
The target of experiment [6] is T3, Histone acetyltransferase p300. The experiment is described as follows: Inhibition of KAT3B (965 to 1810) (unknown origin) using biotinylated histone H3 as substrate after 10 mins by TR-FRET analysis relative to control.
The target of experiment [7] is T2, CREB-binding protein. As to the kind of experiment: Inhibition of KAT3A (1319 to 1710) (unknown origin) using biotinylated histone H3 as substrate after 10 mins by TR-FRET analysis relative to control.
The target in experiment [8] is T1, Histone acetyltransferase KAT2B. The experiment is described as follows: Inhibition of human recombinant N-terminal His-tagged PCAF histone acetyltransferase catalytic domain expressed in Escherichia coli BL21 D3 using biotinylated histone H3 as substrate after 10 mins by TR-FRET analysis relative to control.
Target sequence in this assay (Q92831 whole entry, the tested form may be a part): as the sequence (Q92831 whole entry, looked up, the tested form may be a part) above
The target in experiment [9] is T3, Histone acetyltransferase p300. The experiment is described as follows: Inhibition of KAT3B (965 to 1810) (unknown origin) using biotinylated histone H3 as substrate at 100 uM after 10 mins by TR-FRET analysis relative to control.

T3 sequence (Q09472 whole entry): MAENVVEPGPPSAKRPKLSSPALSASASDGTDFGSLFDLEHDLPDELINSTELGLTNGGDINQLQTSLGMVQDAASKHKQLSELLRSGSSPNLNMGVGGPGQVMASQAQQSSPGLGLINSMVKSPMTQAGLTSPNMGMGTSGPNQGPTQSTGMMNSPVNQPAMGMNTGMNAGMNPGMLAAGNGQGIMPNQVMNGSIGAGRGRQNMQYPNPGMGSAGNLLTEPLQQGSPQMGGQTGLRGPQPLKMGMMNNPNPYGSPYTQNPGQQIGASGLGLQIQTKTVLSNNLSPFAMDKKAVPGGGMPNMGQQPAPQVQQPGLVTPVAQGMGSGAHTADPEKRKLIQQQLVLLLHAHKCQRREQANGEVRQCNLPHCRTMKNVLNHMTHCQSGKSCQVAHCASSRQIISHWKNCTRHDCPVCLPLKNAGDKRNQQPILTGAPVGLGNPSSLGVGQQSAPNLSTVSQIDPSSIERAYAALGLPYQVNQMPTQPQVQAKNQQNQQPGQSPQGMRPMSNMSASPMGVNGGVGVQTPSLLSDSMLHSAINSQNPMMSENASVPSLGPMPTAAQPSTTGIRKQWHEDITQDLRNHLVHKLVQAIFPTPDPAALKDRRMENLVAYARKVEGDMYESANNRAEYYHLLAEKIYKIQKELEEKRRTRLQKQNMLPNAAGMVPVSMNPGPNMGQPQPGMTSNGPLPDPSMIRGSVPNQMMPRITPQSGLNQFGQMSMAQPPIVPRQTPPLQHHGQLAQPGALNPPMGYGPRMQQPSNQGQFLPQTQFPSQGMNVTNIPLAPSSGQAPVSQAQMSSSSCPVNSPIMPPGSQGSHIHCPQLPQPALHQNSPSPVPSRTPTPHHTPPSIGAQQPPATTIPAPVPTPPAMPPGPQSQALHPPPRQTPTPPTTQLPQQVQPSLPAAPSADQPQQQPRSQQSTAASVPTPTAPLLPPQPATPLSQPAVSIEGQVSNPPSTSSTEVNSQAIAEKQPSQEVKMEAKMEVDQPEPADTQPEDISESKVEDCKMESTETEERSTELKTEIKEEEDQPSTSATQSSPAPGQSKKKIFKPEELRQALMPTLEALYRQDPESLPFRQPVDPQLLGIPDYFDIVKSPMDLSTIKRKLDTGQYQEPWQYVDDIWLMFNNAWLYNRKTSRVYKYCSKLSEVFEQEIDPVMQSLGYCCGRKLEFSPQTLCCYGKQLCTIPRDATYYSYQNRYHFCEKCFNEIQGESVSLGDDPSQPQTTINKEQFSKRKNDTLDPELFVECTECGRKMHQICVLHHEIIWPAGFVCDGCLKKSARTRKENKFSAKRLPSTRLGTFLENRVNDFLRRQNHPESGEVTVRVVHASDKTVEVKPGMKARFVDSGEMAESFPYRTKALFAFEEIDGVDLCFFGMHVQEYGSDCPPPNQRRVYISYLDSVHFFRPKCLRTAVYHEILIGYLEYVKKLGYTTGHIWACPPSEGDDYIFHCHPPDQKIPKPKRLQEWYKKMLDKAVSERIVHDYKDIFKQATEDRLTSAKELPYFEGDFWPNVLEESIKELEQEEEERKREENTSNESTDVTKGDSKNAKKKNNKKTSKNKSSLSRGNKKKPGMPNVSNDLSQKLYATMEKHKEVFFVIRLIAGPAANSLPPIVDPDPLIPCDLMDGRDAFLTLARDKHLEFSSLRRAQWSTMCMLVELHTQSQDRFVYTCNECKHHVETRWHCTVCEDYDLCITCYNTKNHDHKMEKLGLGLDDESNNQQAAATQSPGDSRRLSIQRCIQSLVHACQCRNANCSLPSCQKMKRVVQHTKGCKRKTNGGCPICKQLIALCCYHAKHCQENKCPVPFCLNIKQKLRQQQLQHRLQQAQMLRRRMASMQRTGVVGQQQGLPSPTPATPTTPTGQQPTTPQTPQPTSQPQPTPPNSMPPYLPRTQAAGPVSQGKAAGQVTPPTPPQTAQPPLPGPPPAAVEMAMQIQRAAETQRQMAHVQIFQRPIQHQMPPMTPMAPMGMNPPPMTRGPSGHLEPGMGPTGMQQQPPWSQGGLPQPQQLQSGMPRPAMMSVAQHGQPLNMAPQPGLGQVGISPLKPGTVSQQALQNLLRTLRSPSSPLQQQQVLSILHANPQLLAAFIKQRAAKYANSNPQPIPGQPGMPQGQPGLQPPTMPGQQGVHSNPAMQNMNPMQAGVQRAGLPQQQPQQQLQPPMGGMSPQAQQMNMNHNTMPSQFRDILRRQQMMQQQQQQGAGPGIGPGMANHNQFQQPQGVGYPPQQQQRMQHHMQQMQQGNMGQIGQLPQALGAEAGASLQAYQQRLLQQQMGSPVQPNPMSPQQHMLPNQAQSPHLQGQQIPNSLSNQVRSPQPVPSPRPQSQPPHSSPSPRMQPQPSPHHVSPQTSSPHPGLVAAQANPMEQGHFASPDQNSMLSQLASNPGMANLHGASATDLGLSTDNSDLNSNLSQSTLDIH

In the case of `CC1=C/C(=N/Nc2ccnc3cc(Cl)ccc23)CC1`, the inhibition (in general, the share of the control response that was lost under treatment) in experiment [1] amounted to 12%.
With `COC(=O)CCCCCN1C(=O)/C(=C/c2cc(OC)ccc2OC)SC1=S`, in experiment [1], the inhibition was found to be 21%.
Still for that read-out and setting: the same measure for `COc1ccc(/C=C2\SC(=S)N(CCCCCC(=O)O)C2=O)cc1Br`: 8%; for `O=C(O)CCCCCN1C(=O)/C(=C2/C(=O)Nc3ccccc32)SC1=S`: 9%.
`COC(=O)CCCCCN1C(=O)/C(=C2/C(=O)N(Cc3ccc(C)cc3)c3ccccc32)SC1=S`: the inhibition on CREB-binding protein [2] is 25%; in experiment [3], under 5%; in [1], 8%; in experiment [4], 6%.
`CCOc1ccccc1/C=C1\SC(=S)N(CCCCCC(=O)OC)C1=O`: the inhibition in experiment [1] was found to be 9%.
Still for that read-out and setting: the same measure for `COC(=O)CCCCCN1C(=O)/C(=C/c2ccc(C)cc2)SC1=S`: 24%; for `COC(=O)CCN1C(=O)/C(=C/c2cc(OC)ccc2OC)SC1=S`: 8%.
Same read-out and setting: the same measure for `Cc1ccc(COc2cccc(/C=C3\SC(=S)N(CCCC(=O)O)C3=O)c2)cc1`: 5%.
For the compound `Cc1ccc(CN2C(=O)/C(=C3\SC(=S)N(CCCCCC(=O)O)C3=O)c3ccccc32)cc1`, the IC50 (usually the concentration that gives 50% inhibition) in [5] came out at 47 µM; in experiment [6], 81 µM; on CREB-binding protein [7], 41 µM; in experiment [8] it was 67.2 µM.
Take `Cc1ccc(CN2C(=O)/C(=C3\SC(=S)N(CCS(=O)(=O)O)C3=O)c3ccccc32)cc1`: the inhibition in [1] is under 5%.
In the case of `Cc1cccc(NC(=O)CN2C(=O)/C(=C3\SC(=S)N(CCS(=O)(=O)O)C3=O)c3ccccc32)c1`, the inhibition in experiment [1] turned out to be 6%.
Turning to `CN1C(=O)/C(=C2\SC(=S)N(CCCCCC(=O)O)C2=O)c2ccccc21`, the inhibition in [1] was found to be 5%.
On the same count and under the same terms, the same measure for `O=C(O)CCCCCN1C(=O)/C(=C2/C(=O)N(Cc3ccccc3)c3ccccc32)SC1=S`: 13%.
Regarding `O=c1c2cccnc2sn1Cc1ccc(Cl)cc1`, the IC50 amounted to 89.9 µM in experiment [5] and 1.95 µM on CREB-binding protein [7].
Consider `CCN1C(=O)/C(=C2\SC(=S)N(CCCCCC(=O)O)C2=O)c2ccccc21`, for which, in [1], the inhibition is 6%.
Consider `COc1ccc(CN2C(=O)/C(=C3\SC(=S)N(CCCCCC(=O)O)C3=O)c3ccccc32)cc1`, for which the IC50 stood at 54.7 µM in [5], 61.9 µM in experiment [6], 40.9 µM at CREB-binding protein [7] and 28.8 µM in experiment [8].
For `O=C1Nc2ccccc2/C1=C1/SC(=S)N(CCS(=O)(=O)O)C1=O`, the inhibition in [1] was under 5%.
Take `O=C(O)CCCCCN1C(=O)/C(=C2/C(=O)N(Cc3ccc(F)cc3)c3ccccc32)SC1=S`: the IC50 in experiment [5] came out at 210 µM; in experiment [6], 244 µM; at CREB-binding protein [7] it was 116 µM; in experiment [8], 97.7 µM.
For `CCCCCCOc1ccc(/C=C2\SC(=S)N(CCCC(=O)O)C2=O)cc1`, in experiment [1], the inhibition was 8%.
Still for that read-out and setting: then `CN(C)c1ccc(/C=C2\SC(=S)N(CCCCCC(=O)O)C2=O)cc1`, with under 5%; and `Cc1ccc(CN2C(=O)/C(=C3\SC(=S)N(CCCCC(=O)O)C3=O)c3ccccc32)cc1`, with 8%.
`Cc1ccc(CN2C(=O)/C(=C3\SC(=S)N(CCCCCCCC(=O)O)C3=O)c3ccccc32)cc1`: the IC50 in [5] was determined as 63.5 µM; in experiment [6], 95.3 µM; at CREB-binding protein [7] it was 35.9 µM; in experiment [8] it was 63.7 µM.
Turning to `Cc1ccc(CN2C(=O)/C(=C3\SC(=S)N(C[C@H]4CC[C@H](C(=O)O)CC4)C3=O)c3ccccc32)cc1`, the IC50 is 46.4 µM in experiment [5], 38.5 µM at CREB-binding protein [7] and 41.8 µM in [8]. In experiment [9], this compound had an inhibition of 23%.
As for `O=C(O)CCCCCN1C(=O)/C(=C/c2ccc(-c3ccccc3)cc2)SC1=S`, the inhibition in experiment [1] was under 5%.
Still for that read-out and setting: then `O=C(O)c1ccc(N2C(=O)/C(=C3/C(=O)N(Cc4ccccc4)c4ccccc43)SC2=S)cc1`, with 14%.
With `O=C(O)CCCCCN1C(=O)/C(=C2/C(=O)N(Cc3ccc([N+](=O)[O-])cc3)c3ccccc32)SC1=S`, the IC50 in experiment [5] came to 69.6 µM; in [6] it was 152 µM; at CREB-binding protein [7], 28.4 µM; in experiment [8], 78.2 µM.
